In ChEMBL document CHEMBL1201862, “PubChem BioAssay data set” (2004):
Active and inactive are the calls of the source.

Key:
[1] = target: T1, Ubiquitin-conjugating enzyme E2 N (Homo sapiens, UniProt P61088); format: functional
T1 sequence (P61088 whole entry): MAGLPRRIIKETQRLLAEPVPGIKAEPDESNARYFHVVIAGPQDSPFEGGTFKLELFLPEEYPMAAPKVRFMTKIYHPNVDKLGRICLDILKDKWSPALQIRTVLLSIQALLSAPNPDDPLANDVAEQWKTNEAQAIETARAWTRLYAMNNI

[2] = target: T1, Ubiquitin-conjugating enzyme E2 N; format: functional; remark: listed apart in the source
Bcl-2-related protein A1 = Bcl-2-related protein A1 (Mus musculus, UniProt Q07440); format: functional;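 note: confirmatory dose–response counterscreen on Bfl-1, used to check hits from a UBC13 polyubiquitin inhibitor campaign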
Sequence of Bcl-2-related protein A1 (Q07440 whole entry): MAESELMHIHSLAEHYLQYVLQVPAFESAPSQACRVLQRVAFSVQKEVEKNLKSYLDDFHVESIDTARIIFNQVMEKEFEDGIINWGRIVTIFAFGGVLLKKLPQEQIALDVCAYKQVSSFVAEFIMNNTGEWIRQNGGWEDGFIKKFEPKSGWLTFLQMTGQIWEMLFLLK

[3] = target: T2, G-protein coupled receptor 55 (Homo sapiens, UniProt Q9Y2T6); experiment: GPR55 antagonist potency of analogs, SAR follow-up, imaging, U2OS, beta-arrestin-GFP, LPI agonist, set 2 (AID 2820); format: functional
T2 sequence (Q9Y2T6 whole entry): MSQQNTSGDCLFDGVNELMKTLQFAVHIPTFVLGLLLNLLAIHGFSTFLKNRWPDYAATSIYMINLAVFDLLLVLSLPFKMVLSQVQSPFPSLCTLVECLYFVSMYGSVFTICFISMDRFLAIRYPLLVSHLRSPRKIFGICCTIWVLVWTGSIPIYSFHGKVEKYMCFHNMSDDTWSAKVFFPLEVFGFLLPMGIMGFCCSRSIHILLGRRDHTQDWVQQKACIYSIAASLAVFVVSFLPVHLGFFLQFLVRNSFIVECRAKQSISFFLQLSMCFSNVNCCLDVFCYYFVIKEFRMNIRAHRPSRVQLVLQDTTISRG

[4] = target: T3, G-protein coupled receptor 35 (Homo sapiens, UniProt Q9HC97); experiment: SAR analysis of Agonists of the GPR35 Receptor using an Image-Based Assay - Set 2. [Related pubchem assays (depositor defined):AID2013, AID2026]; format: functional
T3 sequence (Q9HC97 whole entry): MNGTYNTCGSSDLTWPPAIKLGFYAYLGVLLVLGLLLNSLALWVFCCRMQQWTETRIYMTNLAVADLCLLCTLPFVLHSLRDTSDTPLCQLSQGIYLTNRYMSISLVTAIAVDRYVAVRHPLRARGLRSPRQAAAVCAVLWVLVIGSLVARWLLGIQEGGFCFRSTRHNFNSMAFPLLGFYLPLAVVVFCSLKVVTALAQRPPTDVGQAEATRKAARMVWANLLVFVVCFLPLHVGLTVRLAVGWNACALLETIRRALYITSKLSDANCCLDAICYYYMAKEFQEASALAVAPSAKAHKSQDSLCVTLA

Cannabinoid receptor 2 [5] = target: T4, Cannabinoid receptor 2 (Homo sapiens, UniProt P34972); experiment: SAR analysis of agonists of the Cannabinoid Receptor 2 using an Image-Based Assay. [Related pubchem assays (depositor defined):AID2013, AID2026]; format: functional
T4 sequence (P34972 whole entry): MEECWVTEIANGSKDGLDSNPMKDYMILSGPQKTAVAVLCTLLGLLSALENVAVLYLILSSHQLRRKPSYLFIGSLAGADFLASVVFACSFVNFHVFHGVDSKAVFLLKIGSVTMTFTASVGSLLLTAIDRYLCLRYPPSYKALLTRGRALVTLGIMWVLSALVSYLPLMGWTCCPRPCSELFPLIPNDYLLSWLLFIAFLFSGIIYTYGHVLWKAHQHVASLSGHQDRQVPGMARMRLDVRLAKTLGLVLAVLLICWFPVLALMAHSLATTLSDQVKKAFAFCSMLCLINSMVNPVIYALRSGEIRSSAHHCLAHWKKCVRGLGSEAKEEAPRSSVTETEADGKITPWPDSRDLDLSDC

Cannabinoid receptor 1 [6] = target: T5, Cannabinoid receptor 1 (Homo sapiens, UniProt P21554); experiment: SAR analysis of agonists of the Cannabinoid Receptor 1 using an Image-Based Assay - Set 2. [Related pubchem assays (depositor defined):AID2013, AID2026]; format: functional
T5 sequence (P21554 whole entry): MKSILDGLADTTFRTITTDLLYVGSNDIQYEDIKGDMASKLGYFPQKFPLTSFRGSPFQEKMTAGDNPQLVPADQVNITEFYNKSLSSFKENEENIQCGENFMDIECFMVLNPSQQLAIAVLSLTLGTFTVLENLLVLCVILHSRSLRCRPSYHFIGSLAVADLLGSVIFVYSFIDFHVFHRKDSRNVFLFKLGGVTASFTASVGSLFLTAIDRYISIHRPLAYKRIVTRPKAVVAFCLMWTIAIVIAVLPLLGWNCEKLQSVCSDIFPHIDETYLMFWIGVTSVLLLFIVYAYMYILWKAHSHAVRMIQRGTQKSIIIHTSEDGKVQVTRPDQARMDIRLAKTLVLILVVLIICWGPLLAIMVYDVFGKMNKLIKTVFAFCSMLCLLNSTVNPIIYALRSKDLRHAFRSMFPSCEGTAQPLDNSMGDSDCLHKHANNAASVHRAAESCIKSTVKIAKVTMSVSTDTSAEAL

Streptococcus = experiment: Group A Streptococcus viability loss, dose response, counter-screen for streptokinase expression inhibitor project, luminescence, BacTiterGlo (AID 1915); format: functional, organism-based; details: read-out: EC50;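 note: potency for reduction of bacterial viability or growth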
Fatty acid synthase [7] = target: T6, Fatty acid synthase (Homo sapiens, UniProt P49327); experiment: FAS thioesterase domain inhibitors, dose response, biochemical, kinetic fluorescence intensity (AID 624326); format: functional;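 note: rate of fluorescence rise from hydrolysis of a fluorogenic O-methyl fluorescein ester substrate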
T6 sequence (P49327 whole entry, the tested form may be a part): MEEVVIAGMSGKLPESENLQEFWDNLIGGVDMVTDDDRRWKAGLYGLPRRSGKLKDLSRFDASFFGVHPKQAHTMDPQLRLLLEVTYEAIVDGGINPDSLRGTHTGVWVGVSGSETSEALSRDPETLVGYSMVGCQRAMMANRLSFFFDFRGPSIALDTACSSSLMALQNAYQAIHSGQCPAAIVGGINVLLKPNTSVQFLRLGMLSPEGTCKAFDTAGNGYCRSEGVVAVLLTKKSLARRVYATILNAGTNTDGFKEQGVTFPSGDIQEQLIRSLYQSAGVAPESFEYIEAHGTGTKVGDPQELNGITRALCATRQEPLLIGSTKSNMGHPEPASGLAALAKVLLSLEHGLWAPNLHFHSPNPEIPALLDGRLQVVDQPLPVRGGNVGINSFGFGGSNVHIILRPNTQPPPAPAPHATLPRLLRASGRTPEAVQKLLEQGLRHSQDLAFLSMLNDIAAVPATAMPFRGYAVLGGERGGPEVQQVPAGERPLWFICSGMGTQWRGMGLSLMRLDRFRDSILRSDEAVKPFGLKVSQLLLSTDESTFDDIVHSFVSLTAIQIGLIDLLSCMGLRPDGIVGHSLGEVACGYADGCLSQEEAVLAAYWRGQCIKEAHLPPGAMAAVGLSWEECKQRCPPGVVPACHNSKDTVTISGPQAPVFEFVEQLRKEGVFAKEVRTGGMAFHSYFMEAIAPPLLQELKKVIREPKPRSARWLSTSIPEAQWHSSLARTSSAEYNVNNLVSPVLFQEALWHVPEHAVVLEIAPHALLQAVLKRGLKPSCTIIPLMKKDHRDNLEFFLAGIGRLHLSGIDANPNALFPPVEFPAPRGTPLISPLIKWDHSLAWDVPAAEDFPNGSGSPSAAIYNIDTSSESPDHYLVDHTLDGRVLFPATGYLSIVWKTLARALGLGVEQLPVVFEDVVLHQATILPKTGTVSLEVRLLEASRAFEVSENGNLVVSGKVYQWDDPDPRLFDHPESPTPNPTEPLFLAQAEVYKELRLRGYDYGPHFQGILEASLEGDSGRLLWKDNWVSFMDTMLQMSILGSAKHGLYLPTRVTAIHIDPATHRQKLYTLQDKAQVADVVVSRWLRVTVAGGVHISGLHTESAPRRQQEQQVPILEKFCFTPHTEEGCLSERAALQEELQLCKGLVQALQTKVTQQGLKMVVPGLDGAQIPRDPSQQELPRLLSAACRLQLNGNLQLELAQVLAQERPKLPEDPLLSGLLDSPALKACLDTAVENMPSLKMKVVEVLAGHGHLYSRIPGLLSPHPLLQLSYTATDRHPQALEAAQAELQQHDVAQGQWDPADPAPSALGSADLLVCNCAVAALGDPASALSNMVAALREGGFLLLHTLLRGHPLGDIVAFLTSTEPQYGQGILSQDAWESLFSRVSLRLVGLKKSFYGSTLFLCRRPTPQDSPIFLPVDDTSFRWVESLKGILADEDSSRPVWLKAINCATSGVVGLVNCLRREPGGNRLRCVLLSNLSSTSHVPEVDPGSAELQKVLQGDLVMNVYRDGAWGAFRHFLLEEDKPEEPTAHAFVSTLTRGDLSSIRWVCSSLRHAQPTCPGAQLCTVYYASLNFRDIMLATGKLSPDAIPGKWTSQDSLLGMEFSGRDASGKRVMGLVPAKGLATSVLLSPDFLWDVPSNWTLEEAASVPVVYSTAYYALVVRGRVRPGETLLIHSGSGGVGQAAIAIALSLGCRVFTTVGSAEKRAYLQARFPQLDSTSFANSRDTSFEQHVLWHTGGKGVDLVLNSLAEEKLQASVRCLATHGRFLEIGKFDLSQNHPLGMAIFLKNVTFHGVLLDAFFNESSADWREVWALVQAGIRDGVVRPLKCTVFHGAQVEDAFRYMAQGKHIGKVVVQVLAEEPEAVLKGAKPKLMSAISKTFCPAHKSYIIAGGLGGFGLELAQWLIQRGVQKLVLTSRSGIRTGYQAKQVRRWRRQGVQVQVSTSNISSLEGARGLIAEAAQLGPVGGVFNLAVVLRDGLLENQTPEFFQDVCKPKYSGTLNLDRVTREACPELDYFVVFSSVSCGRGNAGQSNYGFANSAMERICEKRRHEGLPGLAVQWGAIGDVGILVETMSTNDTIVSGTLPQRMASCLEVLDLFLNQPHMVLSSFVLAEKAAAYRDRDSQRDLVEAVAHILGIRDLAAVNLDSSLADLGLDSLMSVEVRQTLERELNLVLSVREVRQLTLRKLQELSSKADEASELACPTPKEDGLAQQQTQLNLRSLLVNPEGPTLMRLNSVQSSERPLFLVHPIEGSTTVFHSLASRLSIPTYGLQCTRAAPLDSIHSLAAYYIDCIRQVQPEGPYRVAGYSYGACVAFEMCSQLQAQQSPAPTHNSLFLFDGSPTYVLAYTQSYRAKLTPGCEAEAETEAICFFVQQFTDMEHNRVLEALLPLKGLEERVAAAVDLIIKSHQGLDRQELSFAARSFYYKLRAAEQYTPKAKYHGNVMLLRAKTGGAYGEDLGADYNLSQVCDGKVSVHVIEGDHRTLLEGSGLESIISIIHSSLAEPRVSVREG

Trypsin = Trypsin (Sus scrofa, UniProt P00761); experiment: porcine trypsin inhibitors, dose response, selectivity assay for Rce1 protease inhibitor project, biochemical, quenched peptide fluorescence, cherry-pick (AID 488789)
Sequence of Trypsin (P00761 whole entry): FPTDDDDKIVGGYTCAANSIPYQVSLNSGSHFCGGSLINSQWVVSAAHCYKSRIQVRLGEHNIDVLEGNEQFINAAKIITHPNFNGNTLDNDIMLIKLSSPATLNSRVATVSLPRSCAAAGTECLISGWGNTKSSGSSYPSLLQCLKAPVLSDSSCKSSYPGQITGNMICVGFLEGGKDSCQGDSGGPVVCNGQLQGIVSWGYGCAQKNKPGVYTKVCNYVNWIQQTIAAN

Cannabinoid receptor 2 [8] = target: T4, Cannabinoid receptor 2; experiment: SAR analysis of antagonists of the Cannabinoid Receptor 2 using an Image-Based Assay. [Related pubchem assays (depositor defined):AID2013, AID2026]; format: functional
[9] = target: T7, Small ubiquitin-related modifier 1 (Homo sapiens, UniProt P63165); experiment: inhibitors of SUMO1 peptide binding, dose response, biochemical, fluorescence polarization, uHTS hits (AID 624382); format: functional; details: read-out: IC50_Mean
T7 sequence (P63165 whole entry): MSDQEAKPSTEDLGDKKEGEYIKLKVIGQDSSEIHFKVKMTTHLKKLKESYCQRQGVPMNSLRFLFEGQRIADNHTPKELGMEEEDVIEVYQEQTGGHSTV

CAAX prenyl protease 2 = target: T8, CAAX prenyl protease 2 (Saccharomyces cerevisiae S288c, UniProt Q03530); format: biochemical
T8 sequence (Q03530 whole entry): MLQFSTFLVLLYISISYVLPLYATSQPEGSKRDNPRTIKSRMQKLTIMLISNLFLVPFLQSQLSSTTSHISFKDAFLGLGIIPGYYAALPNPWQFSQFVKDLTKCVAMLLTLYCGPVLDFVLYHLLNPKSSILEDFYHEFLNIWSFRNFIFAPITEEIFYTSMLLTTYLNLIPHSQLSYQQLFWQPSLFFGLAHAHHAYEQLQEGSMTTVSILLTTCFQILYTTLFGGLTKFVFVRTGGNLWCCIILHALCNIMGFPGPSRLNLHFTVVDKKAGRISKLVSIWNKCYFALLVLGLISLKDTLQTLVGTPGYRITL

Cannabinoid receptor 1 [10] = target: T5, Cannabinoid receptor 1; experiment: SAR analysis of antagonists of the Cannabinoid Receptor 1 using an Image-Based Assay - Set 2. [Related pubchem assays (depositor defined):AID2013, AID2026]; format: functional
Streptokinase A = target: T9, Streptokinase A (Streptococcus pyogenes serotype M1, UniProt P10520); experiment: S. pyogenes streptokinase expression inhibitors, potency, dose response, plasminogen activation absorbance, OD405 (AID 1914); format: functional, Streptococcus pyogenes M1 GAS;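 note: secreted streptokinase activity via plasminogen activation per viability signal from cell pellet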
T9 sequence (P10520 whole entry): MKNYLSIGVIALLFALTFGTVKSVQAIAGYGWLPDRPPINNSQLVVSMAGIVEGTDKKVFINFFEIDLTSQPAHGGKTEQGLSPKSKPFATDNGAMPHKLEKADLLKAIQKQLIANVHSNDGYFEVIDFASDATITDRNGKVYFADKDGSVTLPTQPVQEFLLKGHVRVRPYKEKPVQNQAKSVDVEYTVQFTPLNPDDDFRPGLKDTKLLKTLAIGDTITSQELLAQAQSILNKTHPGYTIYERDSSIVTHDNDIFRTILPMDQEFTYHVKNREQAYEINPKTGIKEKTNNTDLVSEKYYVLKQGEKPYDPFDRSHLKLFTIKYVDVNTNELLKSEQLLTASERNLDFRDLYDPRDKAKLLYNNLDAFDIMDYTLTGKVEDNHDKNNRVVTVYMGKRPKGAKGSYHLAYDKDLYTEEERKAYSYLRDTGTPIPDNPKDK

[11] = target: T3, G-protein coupled receptor 35; experiment: SAR analysis of Antagonists of the GPR35 Receptor using an Image-Based Assay - Set 3. [Related pubchem assays (depositor defined):AID2013, AID2026]; format: functional
[12] = target: T2, G-protein coupled receptor 55; experiment: GPR55 antagonists blocking LPI-driven arrestin recruitment, primary screen, imaging, U2OS, beta-arrestin-GFP, LPI agonist (AID 2013); format: functional;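 note: antagonist potency measured as reduced agonist-driven arrestin aggregation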
[13] = target: T7, Small ubiquitin-related modifier 1; experiment: inhibitors of SUMO1 partner interactions, dose response, biochemical, FRET (AID 624383); format: functional; details: read-out: IC50_Mean
Fatty acid synthase [14] = target: T6, Fatty acid synthase; experiment: FAS thioesterase domain inhibitors, dose response, biochemical, endpoint fluorescence intensity, uHTS hits (AID 624327); format: functional;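 note: fluorescence from hydrolysis of an O-methyl fluorescein acyl ester substrate by the enzyme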
Hexokinase-1 = target: T10, Hexokinase-1 (Homo sapiens, UniProt P19367); experiment: hexokinase 1 activators, dose response, selectivity assay for HKDC1 activator project, biochemical (AID 504762); format: functional
T10 sequence (P19367 whole entry): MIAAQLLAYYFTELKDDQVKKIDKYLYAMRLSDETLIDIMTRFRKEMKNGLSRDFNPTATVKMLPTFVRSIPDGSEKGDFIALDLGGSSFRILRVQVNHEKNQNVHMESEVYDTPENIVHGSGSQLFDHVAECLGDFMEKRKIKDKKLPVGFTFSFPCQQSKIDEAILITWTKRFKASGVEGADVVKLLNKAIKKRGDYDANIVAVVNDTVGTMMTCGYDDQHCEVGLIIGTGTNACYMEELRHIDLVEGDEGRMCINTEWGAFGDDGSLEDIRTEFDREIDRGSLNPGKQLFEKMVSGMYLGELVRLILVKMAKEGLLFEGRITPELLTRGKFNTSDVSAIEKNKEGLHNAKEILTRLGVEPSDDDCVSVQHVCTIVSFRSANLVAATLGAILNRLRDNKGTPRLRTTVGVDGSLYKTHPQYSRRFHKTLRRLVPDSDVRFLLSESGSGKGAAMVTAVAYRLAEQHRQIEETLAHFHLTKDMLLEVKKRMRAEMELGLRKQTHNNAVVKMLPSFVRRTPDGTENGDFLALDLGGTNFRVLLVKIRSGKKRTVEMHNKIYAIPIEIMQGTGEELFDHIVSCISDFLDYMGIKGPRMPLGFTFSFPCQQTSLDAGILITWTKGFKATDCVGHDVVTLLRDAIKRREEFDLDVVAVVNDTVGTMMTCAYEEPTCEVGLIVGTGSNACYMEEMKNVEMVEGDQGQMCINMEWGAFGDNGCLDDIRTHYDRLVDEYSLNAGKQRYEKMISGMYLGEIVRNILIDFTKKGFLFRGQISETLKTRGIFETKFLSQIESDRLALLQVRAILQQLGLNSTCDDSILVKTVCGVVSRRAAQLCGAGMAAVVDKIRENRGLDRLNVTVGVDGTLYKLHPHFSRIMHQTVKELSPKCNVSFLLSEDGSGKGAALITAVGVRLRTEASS

Hexokinase HKDC1 = target: T11, Hexokinase HKDC1 (Homo sapiens, UniProt Q2TB90); experiment: HKDC1 hexokinase activators, dose response, biochemical, W721R variant (AID 504730); format: functional
T11 sequence (Q2TB90 whole entry): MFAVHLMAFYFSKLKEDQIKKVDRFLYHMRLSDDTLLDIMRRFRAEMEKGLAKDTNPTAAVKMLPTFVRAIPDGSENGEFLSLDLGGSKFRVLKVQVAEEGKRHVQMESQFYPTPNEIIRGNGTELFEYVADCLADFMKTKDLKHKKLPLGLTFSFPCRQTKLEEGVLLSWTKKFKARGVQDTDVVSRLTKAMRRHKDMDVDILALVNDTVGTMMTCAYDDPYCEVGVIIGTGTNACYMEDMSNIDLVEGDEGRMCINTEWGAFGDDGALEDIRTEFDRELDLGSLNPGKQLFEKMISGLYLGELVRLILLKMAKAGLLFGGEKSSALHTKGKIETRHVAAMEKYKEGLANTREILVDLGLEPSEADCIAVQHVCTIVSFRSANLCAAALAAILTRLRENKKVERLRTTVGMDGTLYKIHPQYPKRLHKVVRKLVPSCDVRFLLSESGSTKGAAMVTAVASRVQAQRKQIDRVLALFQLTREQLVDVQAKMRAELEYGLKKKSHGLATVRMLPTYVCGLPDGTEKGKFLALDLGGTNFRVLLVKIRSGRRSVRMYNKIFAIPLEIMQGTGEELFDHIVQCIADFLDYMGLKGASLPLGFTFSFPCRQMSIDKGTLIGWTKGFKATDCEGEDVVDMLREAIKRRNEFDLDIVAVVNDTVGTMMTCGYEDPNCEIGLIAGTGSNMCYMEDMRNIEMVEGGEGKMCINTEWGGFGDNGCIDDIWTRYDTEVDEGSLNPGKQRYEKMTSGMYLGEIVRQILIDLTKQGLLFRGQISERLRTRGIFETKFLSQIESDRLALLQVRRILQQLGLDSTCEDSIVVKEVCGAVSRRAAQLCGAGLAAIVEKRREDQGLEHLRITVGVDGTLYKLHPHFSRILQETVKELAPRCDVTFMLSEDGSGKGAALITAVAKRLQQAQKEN

[15] = target: T2, G-protein coupled receptor 55; experiment: SAR Analysis of Selective Antagonists of GPR55 using an Image-Based Assay - Set 4. [Related pubchem assays (depositor defined):AID2013, AID2026]; format: functional
Cannabinoid receptor 1 [16] = target: T5, Cannabinoid receptor 1; experiment: SAR analysis of agonists of the Cannabinoid Receptor 1 using an Image-Based Assay - Set 4. [Related pubchem assays (depositor defined):AID2013, AID2026]; format: functional
[17] = target: T3, G-protein coupled receptor 35; experiment: SAR analysis of Agonists of the GPR35 Receptor using an Image-Based Assay - Set 4. [Related pubchem assays (depositor defined):AID2013, AID2026]; format: functional
[18] = target: T3, G-protein coupled receptor 35; experiment: SAR analysis of Antagonists of the GPR35 Receptor using an Image-Based Assay - Set 6. [Related pubchem assays (depositor defined):AID2013, AID2026]; format: functional
Cannabinoid receptor 2 [19] = target: T4, Cannabinoid receptor 2; experiment: SAR analysis of antagonists of the Cannabinoid Receptor 2 using an Image-Based Assay - Set 3. [Related pubchem assays (depositor defined):AID2013, AID2026]; format: functional
Cannabinoid receptor 1 [20] = target: T5, Cannabinoid receptor 1; experiment: SAR analysis of antagonists of the Cannabinoid Receptor 1 using an Image-Based Assay - Set 4. [Related pubchem assays (depositor defined):AID2013, AID2026]; format: functional
Cannabinoid receptor 2 [21] = target: T4, Cannabinoid receptor 2; experiment: SAR analysis of agonists of the Cannabinoid Receptor 2 using an Image-Based Assay - Set 3. [Related pubchem assays (depositor defined):AID2013, AID2026]; format: functional

CCCCN(C(=O)c1ccco1)c1nnc(-c2cc(OC)c(OC)c(OC)c2)s1
IC50 [1]: 9.79 µM (active) | IC50 [2]: 10.4 µM (active) | IC50 (Bcl-2-related protein A1): > 20 µM (inactive)

CC(C)(C)OC(=O)N1CCC(c2cc(O)n3ncc(C(=O)Nc4ccc(F)c(Cl)c4)c3n2)CC1
IC50 [3]: 0.948 µM (active) | EC50 [4]: 5.23 µM (active) | EC50 (Cannabinoid receptor 2 [5]): > 32 µM (inactive) | EC50 (Cannabinoid receptor 1 [6]): > 32 µM (inactive) | EC50 (Streptococcus): > 150 µM (not active) | IC50 (Fatty acid synthase [7]): 5.64 µM (active) | AC50 (Trypsin): 77.2 µM (active) | IC50 (Cannabinoid receptor 2 [8]): > 32 µM (inactive) | IC50 [9]: > 66.6 µM (inactive) | AC50 (CAAX prenyl protease 2): 17.8 µM (active) | IC50 (Cannabinoid receptor 1 [10]): 10.5 µM (inactive) | EC50 (Streptokinase A): > 150 µM (not active) | IC50 [11]: 25.4 µM (inactive) | IC50 [12]: 1.41 µM (active) | IC50 [13]: 9.68 µM (active) | IC50 (Fatty acid synthase [14]): 8.24 µM (active)

O=S(=O)(NC1c2cccc3cccc(c23)C1N1CCN(CCO)CC1)c1ccccc1 (stereo not drawn)
EC50 (Hexokinase-1): 24 µM (inactive) | EC50 (Hexokinase HKDC1): 18.1 µM (active)

Cc1nc(N2CCN(C(=O)C3CCCO3)CC2)c2c3c(sc2n1)CCCC3 (stereo not drawn)
IC50 [15]: > 32 µM (inactive) | EC50 (Cannabinoid receptor 1 [16]): > 32 µM (inactive) | EC50 [17]: > 32 µM (inactive) | IC50 [18]: > 32 µM (inactive) | IC50 (Cannabinoid receptor 2 [19]): > 32 µM (inactive) | IC50 (Cannabinoid receptor 1 [20]): > 32 µM (inactive) | EC50 (Cannabinoid receptor 2 [21]): > 32 µM (inactive)
